Laboratory results published in US8114880B2, “Piperidine or piperazine substituted tetrahydro-naphthalene-1-carboxylic acid MTP inhibiting compounds” (Janssen Pharmaceutica N.V., priority 2006, dated 2012).

target: MTP (Homo sapiens, UniProt P55157); assay: MTP assay (triglyceride transfer from donor to acceptor vesicles); format: biochemical; settings: MTP activity, percent triglyceride transfer from donor to acceptor vesicles, 37° C.
Method: MTP activity was measured using an assay similar to one described by J. R. Wetterau and D. B. Zilversmit in Chemistry and Physics of Lipids, 38, 205-222 (1985). To prepare the donor and acceptor vesicles, the appropriate lipids in chloroform were put into a glass test tube and dried under a stream of nitrogen. A buffer containing 15 mM Tris-HCl pH 7.5, 1 mM EDTA, 40 mM NaCl, 0.02% NaN3 (assay buffer) was added to the dried lipid. The mixture was vortexed briefly and the lipids were then allowed to hydrate for 20 minutes on ice. Vesicles were then prepared by bath sonication (Branson 2200) at room temperature for maximum 15 minutes. Butylated hydroxytoluene was included in all vesicle preparations at a concentration of 0.1%. The lipid transfer assay mixture contained donor vesicles (40 nmol phosphatidylcholine, 7.5 mol % of cardiolipin and 0.25 mol % glycerol tri [1-^14C]-oleate), acceptor vesicles (240 nmol phosphatidylcholine) and 5 mg BSA in a total volume of 675 μl in a 1.5 ml microcentrifuge tube. Test compounds were added dissolved in DMSO (0.13% final concentration). After 5 minutes of pre-incubation at 37° C., the reaction was started by the addition of MTP in 100 μl dialysis buffer. The reaction was stopped by the addition of 400 μl DEAE-52 cellulose pre-equilibrated in 15 mM Tris-HCl pH 7.5, 1 mM EDTA, 0.02% NaN3 (1:1, vol/vol). The mixture was agitated for 4 minutes and centrifuged for 2 minutes at maximum speed in an Eppendorf centrifuge (4° C.) to pellet the DEAE-52-bound donor vesicles. An aliquot of the supernatant containing the acceptor liposomes was counted and the [^14C]-counts were used to calculate the percent triglyceride transfer from donor to acceptor vesicles.

MTP, sequence (P55157 19-894, species assumed): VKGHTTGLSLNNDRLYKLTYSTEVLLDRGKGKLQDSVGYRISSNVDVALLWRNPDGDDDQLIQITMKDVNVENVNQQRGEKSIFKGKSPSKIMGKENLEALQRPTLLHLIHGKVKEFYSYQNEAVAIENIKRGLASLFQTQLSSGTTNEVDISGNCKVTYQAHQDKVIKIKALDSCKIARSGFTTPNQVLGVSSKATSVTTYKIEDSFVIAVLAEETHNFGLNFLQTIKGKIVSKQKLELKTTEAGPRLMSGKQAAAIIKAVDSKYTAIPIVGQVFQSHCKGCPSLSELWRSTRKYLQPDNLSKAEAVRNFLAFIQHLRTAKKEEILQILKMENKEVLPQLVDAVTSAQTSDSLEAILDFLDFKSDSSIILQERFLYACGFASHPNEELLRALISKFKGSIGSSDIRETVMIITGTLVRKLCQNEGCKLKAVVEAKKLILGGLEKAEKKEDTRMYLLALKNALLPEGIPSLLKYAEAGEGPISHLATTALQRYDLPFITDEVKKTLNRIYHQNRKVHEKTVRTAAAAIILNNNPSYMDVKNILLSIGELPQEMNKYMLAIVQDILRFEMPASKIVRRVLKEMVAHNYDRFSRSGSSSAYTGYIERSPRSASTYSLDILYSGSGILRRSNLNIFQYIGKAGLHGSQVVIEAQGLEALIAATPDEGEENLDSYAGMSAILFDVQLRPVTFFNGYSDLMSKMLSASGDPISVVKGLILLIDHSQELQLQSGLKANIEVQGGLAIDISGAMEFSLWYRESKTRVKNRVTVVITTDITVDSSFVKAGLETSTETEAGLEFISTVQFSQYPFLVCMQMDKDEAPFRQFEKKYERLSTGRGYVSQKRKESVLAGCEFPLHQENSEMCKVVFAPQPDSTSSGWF
MTP, sequence (P07237 18-508 partner, species assumed): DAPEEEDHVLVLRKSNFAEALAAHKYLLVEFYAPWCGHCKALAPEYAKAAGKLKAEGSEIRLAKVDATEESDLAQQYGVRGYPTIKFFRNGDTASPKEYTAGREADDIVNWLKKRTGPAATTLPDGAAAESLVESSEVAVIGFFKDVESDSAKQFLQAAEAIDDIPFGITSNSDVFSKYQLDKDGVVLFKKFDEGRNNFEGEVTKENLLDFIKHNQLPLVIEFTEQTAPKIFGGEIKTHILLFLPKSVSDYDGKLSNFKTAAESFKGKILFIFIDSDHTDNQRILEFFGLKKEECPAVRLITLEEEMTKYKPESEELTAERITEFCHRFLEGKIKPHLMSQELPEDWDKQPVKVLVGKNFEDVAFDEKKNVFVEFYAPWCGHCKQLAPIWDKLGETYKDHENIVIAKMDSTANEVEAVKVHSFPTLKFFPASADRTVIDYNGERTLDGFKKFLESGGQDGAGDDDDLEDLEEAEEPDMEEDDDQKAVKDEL

`Cn1cccc(C(=O)NC2CCN(C(=O)[C@H]3CC[C@@](C(=O)N[C@@H](CCC(N)=O)C(=O)OC(C)(C)C)(c4ccccc4)c4ccccc43)CC2)c1=O` [Co. No. 170] and `Cn1cccc(C(=O)NC2CCN(C(=O)[C@H]3CC[C@@](C(=O)N[C@@H](CC(N)=O)C(=O)OC(C)(C)C)(c4ccccc4)c4ccccc43)CC2)c1=O` [Co. No. 181] cannot be ordered by IC50: over 10000 nM for the first, over 10000 nM for the second.

Compared with `CCOC(=O)[C@H](CO)NC(=O)[C@@]1(c2ccccc2)CC[C@H](C(=O)N2CCC(NC(=O)c3ccccc3OC)CC2)c2ccccc21` [Co. No. 71], `COc1ccccc1C(=O)NC1CCN(C(=O)[C@H]2CC[C@@](C(=O)N[C@@H](C)C(=O)O)(c3ccccc3)c3ccccc32)CC1` [Co. No. 116] is 17-fold higher in IC50: 493 nM for the first, 8410 nM for the second.

First: COc1ccccc1C(=O)NC1CCN(C(=O)[C@H]2CC[C@@](C(=O)N[C@@H](CC(C)C)C(=O)O)(c3ccccc3)c3ccccc32)CC1 [Co. No. 119]
Second: COc1ccccc1C(=O)NC1CCN(C(=O)[C@H]2CC[C@@](C(=O)N[C@@H](C(=O)O)C(C)C)(c3ccccc3)c3ccccc32)CC1 [Co. No. 118]
The IC50 of the first is higher: over 10000 nM for the first, 887 nM for the second. The second is the more potent here.

Going from `CCOC(=O)[C@H](Cc1ccccc1)NC(=O)[C@@]1(c2ccccc2)CC[C@H](C(=O)N2CCC(NC(=O)c3cccn(C)c3=O)CC2)c2ccccc21` [Co. No. 154] to `CCOC(=O)[C@@H](Cc1ccccc1)NC(=O)[C@@]1(c2ccccc2)CC[C@H](C(=O)N2CCC(NC(=O)c3cccn(C)c3=O)CC2)c2ccccc21` [Co. No. 155], the IC50 falls from 1850 nM to 731 nM (2.5-fold). The second is the more potent here.

First: CCOC(=O)[C@H](CC(C)C)NC(=O)[C@@]1(c2ccccc2)CC[C@H](C(=O)N2CCC(NC(=O)c3cccn(C)c3=O)CC2)c2ccccc21 [Co. No. 141]
Second: CCOC(=O)[C@H](CO)NC(=O)[C@@]1(c2ccccc2)CC[C@H](C(=O)N2CCC(NC(=O)c3cccn(C)c3=O)CC2)c2ccccc21 [Co. No. 142]
The IC50 of the first is lower: 1860 nM for the first, over 10000 nM for the second.

`COc1ccccc1C(=O)NC1CCN(C(=O)[C@H]2CC[C@@](C(=O)N[C@H](C(=O)O)c3ccccc3)(c3ccccc3)c3ccccc32)CC1` [Co. No. 124] and `Cn1cccc(C(=O)NC2CCN(C(=O)[C@H]3CC[C@@](C(=O)N[C@@H](C(=O)O)c4ccccc4)(c4ccccc4)c4ccccc43)CC2)c1=O` [Co. No. 193] cannot be ordered by IC50: over 10000 nM for the first, over 10000 nM for the second.

`COC(=O)[C@H](CCCCNC(=O)[C@@]1(c2ccccc2)CC[C@H](C(=O)N2CCC(NC(=O)c3cccn(C)c3=O)CC2)c2ccccc21)NC(C)=O` [Co. No. 236] and `CCOC(=O)NCCCC[C@@H](NC(=O)[C@@]1(c2ccccc2)CC[C@H](C(=O)N2CCC(NC(=O)c3cccn(C)c3=O)CC2)c2ccccc21)C(=O)OC` [Co. No. 238] are within 1.5-fold of each other in IC50: 2670 nM for the first, 2330 nM for the second.

Compared with `CCOC(=O)[C@]1(c2ccccc2)CC[C@@H](C(=O)N2CCC(NC(=O)c3ccccc3N3CCN(C)CC3)CC2)c2ccccc21` [Co. No. 268], `C=CCOC(=O)[C@@]1(c2ccccc2)CC[C@H](C(=O)N2CCC(NC(=O)c3ccccc3N3CCN(C)CC3)CC2)c2ccccc21` [Co. No. 269] is 1.7-fold lower in IC50: 14.5 nM for the first, 8.45 nM for the second. The second is the more potent here.

Compared with `COC(=O)[C@@H]1C[C@@H](O)CN1C(=O)[C@@]1(c2ccccc2)CC[C@H](C(=O)N2CCC(NC(=O)c3ccccc3OC)CC2)c2ccccc21` [Co. No. 78], `CCOC(=O)[C@H]1CCCN1C(=O)[C@@]1(c2ccccc2)CC[C@H](C(=O)N2CCC(NC(=O)c3ccccc3OC)CC2)c2ccccc21` [Co. No. 77] is 18-fold lower in IC50: 3820 nM for the first, 217 nM for the second.

Going from `CCOC(=O)NCCCC[C@@H](NC(=O)[C@@]1(c2ccccc2)CC[C@H](C(=O)N2CCC(NC(=O)c3cccn(C)c3=O)CC2)c2ccccc21)C(=O)OCC` [Co. No. 239] to `CCOC(=O)[C@@H](CCCCNC(=O)OC(C)C)NC(=O)[C@@]1(c2ccccc2)CC[C@H](C(=O)N2CCC(NC(=O)c3cccn(C)c3=O)CC2)c2ccccc21` [Co. No. 241], the IC50 falls from 643 nM to 243 nM (2.6-fold).

First: Cn1cccc(C(=O)NC2CCN(C(=O)[C@H]3CC[C@@](C(=O)N4C[C@H](OC(C)(C)C)C[C@H]4C(=O)OC(C)(C)C)(c4ccccc4)c4ccccc43)CC2)c1=O [Co. No. 175]
Second: Cn1cccc(C(=O)NC2CCN(C(=O)[C@H]3CC[C@@](C(=O)N[C@@H](CC(=O)OC(C)(C)C)C(=O)OC(C)(C)C)(c4ccccc4)c4ccccc43)CC2)c1=O [Co. No. 169]
The IC50 of the first is 2.1-fold higher: 3720 nM for the first, 1750 nM for the second. The second is the more potent here.

`Cn1cccc(C(=O)NC2CCN(C(=O)[C@H]3CC[C@@](C(=O)N[C@H](Cc4ccccc4)C(=O)O)(c4ccccc4)c4ccccc43)CC2)c1=O` [Co. No. 196] and `Cn1cccc(C(=O)NC2CCN(C(=O)[C@H]3CC[C@@](C(=O)N[C@@H](Cc4ccccc4)C(=O)O)(c4ccccc4)c4ccccc43)CC2)c1=O` [Co. No. 195] cannot be ordered by IC50: over 10000 nM for the first, over 10000 nM for the second.

Going from `CCOC(=O)[C@@H]1CCCN1C(=O)[C@@]1(c2ccccc2)CC[C@H](C(=O)N2CCC(NC(=O)c3ccccc3OC)CC2)c2ccccc21` [Co. No. 76] to `COc1ccccc1C(=O)NC1CCN(C(=O)[C@H]2CC[C@](C(N)=O)(c3ccccc3)c3ccccc32)CC1` [Co. No. 37], the IC50 rises from 326 nM to 7830 nM (24-fold). The first is the more potent here.

`Cn1cccc(C(=O)NC2CCN(C(=O)[C@H]3CC[C@@](C(=O)N[C@@H](CC(N)=O)C(=O)O)(c4ccccc4)c4ccccc43)CC2)c1=O` [Co. No. 198] and `CC(C)[C@@H](NC(=O)[C@@]1(c2ccccc2)CC[C@H](C(=O)N2CCC(NC(=O)c3cccn(C)c3=O)CC2)c2ccccc21)C(=O)O` [Co. No. 188] cannot be ordered by IC50: over 10000 nM for the first, over 10000 nM for the second.

`CCOC(=O)CC[C@H](NC(=O)[C@@]1(c2ccccc2)CC[C@H](C(=O)N2CCC(NC(=O)c3cccn(C)c3=O)CC2)c2ccccc21)C(=O)OCC` [Co. No. 146] and `CCOC(=O)CNC(=O)[C@@]1(c2ccccc2)CC[C@H](C(=O)N2CCC(NC(=O)c3cccn(C)c3=O)CC2)c2ccccc21` [Co. No. 133] are within 1.5-fold of each other in IC50: 776 nM for the first, 796 nM for the second.

Compared with `COc1ccccc1C(=O)NC1CCN(C(=O)[C@H]2CC[C@@](C(=O)N[C@@H](Cc3ccc(O)cc3)C(=O)O)(c3ccccc3)c3ccccc32)CC1` [Co. No. 126], `Cn1cccc(C(=O)NC2CCN(C(=O)[C@H]3CC[C@@](C(=O)N[C@@H](Cc4ccc(O)cc4)C(=O)O)(c4ccccc4)c4ccccc43)CC2)c1=O` [Co. No. 197] is higher in IC50: 6190 nM for the first, over 10000 nM for the second. The first is the more potent here.

`Cn1cccc(C(=O)NC2CCN(C(=O)[C@H]3CC[C@@](C(=O)N4CCC[C@@H]4C(=O)O)(c4ccccc4)c4ccccc43)CC2)c1=O` [Co. No. 191] and `CN(CC(=O)O)C(=O)[C@@]1(c2ccccc2)CC[C@H](C(=O)N2CCC(NC(=O)c3cccn(C)c3=O)CC2)c2ccccc21` [Co. No. 185] cannot be ordered by IC50: over 10000 nM for the first, over 10000 nM for the second.

`CCOC(=O)NCCCC[C@H](CC(=O)[C@@]1(c2ccccc2)CC[C@H](C(=O)N2CCC(NC(=O)c3cccn(C)c3=O)CC2)c2ccccc21)C(=O)OCC` [Co. No. 232] and `CC(C)OC(=O)NCCCC[C@@H](NC(=O)[C@@]1(c2ccccc2)CC[C@H](C(=O)N2CCC(NC(=O)c3cccn(C)c3=O)CC2)c2ccccc21)C(=O)OC(C)C` [Co. No. 242] are within 1.5-fold of each other in IC50: 3330 nM for the first, 2360 nM for the second.

`CCOC(=O)[C@H](NC(=O)[C@@]1(c2ccccc2)CC[C@H](C(=O)N2CCC(NC(=O)c3cccn(C)c3=O)CC2)c2ccccc21)c1ccccc1` [Co. No. 152] and `CCOC(=O)[C@@H](NC(=O)[C@@]1(c2ccccc2)CC[C@H](C(=O)N2CCC(NC(=O)c3cccn(C)c3=O)CC2)c2ccccc21)c1ccccc1` [Co. No. 153] are within 1.5-fold of each other in IC50: 1630 nM for the first, 1110 nM for the second.

Going from `CCOC(=O)[C@]1(c2ccccc2)CC[C@H](C(=O)N2CCN(C(=O)c3ccccc3-c3ccc(C(F)(F)F)cc3)CC2)c2ccccc21` [Co. No. 31] to `C=CCOC(=O)[C@]1(c2ccccc2)CC[C@H](C(=O)N2CCC(NC(=O)c3ccccc3)CC2)c2ccccc21` [Co. No. 12], the IC50 rises from 348 nM to 778 nM (2.2-fold). The first is the more potent here.

Going from `CC(C)OC(=O)CCCCNC(=O)[C@@]1(c2ccccc2)CC[C@H](C(=O)N2CCC(NC(=O)c3cccn(C)c3=O)CC2)c2ccccc21` [Co. No. 227] to `COC(=O)CCCNC(=O)[C@@]1(c2ccccc2)CC[C@H](C(=O)N2CCC(NC(=O)c3cccn(C)c3=O)CC2)c2ccccc21` [Co. No. 224], the IC50 rises from 228 nM to 1140 nM (5-fold).

`CN(CC(=O)OC(C)(C)C)C(=O)[C@@]1(c2ccccc2)CC[C@H](C(=O)N2CCC(NC(=O)c3cccn(C)c3=O)CC2)c2ccccc21` [Co. No. 163] and `Cn1cccc(C(=O)NC2CCN(C(=O)[C@H]3CC[C@@](C(=O)N[C@@H](C(=O)OC(C)(C)C)c4ccccc4)(c4ccccc4)c4ccccc43)CC2)c1=O` [Co. No. 176] are within 1.5-fold of each other in IC50: 1450 nM for the first, 1880 nM for the second.

First: COc1ccccc1C(=O)NC1CCN(C(=O)[C@H]2CC[C@@](C(=O)N[C@@H](Cc3c[nH]c4ccccc34)C(=O)OC(C)(C)C)(c3ccccc3)c3ccccc32)CC1 [Co. No. 114]
Second: COc1ccccc1C(=O)NC1CCN(C(=O)[C@H]2CC[C@@](C(=O)N[C@H](C)C(=O)OC(C)(C)C)(c3ccccc3)c3ccccc32)CC1 [Co. No. 93]
The IC50 of the first is 22-fold higher: 203 nM for the first, 9.33 nM for the second. The second is the more potent here.

First: CCNC(=O)[C@]1(c2ccccc2)CC[C@H](C(=O)N2CCC(NC(=O)c3ccccc3OC)CC2)c2ccccc21 [Co. No. 9]
Second: CCOC(=O)[C@]1(c2cccc(F)c2)CC[C@@H](C(=O)N2CCC(NC(=O)c3ccccc3OC)CC2)c2cc(F)ccc21 [Co. No. 271]
The IC50 of the first is 230-fold higher: 689 nM for the first, 2.94 nM for the second. The second is the more potent here.
